From patent US10227331B2 (priority 2015, dated 2019) come the findings set out here.

One data set deals with IMP-1 (Serratia marcescens, UniProt P52699). Nature of the data set: biochemical. It counts as biochemical. In short, it runs like this:
(§1)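 Enzyme activity was measured by fluorescence using CCF2-FA, a cephalosporin-linked 7-hydroxycoumarin/fluorescein substrate, with inhibitor, metallo-β-lactamase and substrate incubated together for 2 hours at 25° C. IC50 came from a 4-parameter fit of inhibition versus log inhibitor concentration.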

The next data set addresses NDM-1 (Klebsiella pneumoniae, UniProt C7C422). Briefly: biochemical. Type of data set: biochemical. The conditions noted are these: CCF2-FA substrate, 2 hours at 25° C; read-out: NDM-1 IC50. In short, it runs like this: as §1
The next data set addresses VIM-1 (Pseudomonas aeruginosa (strain ATCC 15692 / DSM 22644 / CIP 104116 / JCM 14847 / LMG 12228 / 1C / PRS 101 / PAO1), UniProt A0A0F7KYQ8). Briefly: biochemical. The conditions noted are these: CCF2-FA substrate, 2 hours at 25° C. In outline: as §1
The test system of data set [1] is Escherichia coli expressing NDM-1 (CLB30005, CLB30016). It counts as cell-based. The conditions noted are these: with imipenem 1 μg/ml, 95% inhibition of bacterial growth; for Escherichia coli MITC95: NDM-1 (CLB30016). In short, it runs like this: (§2)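 Restoration of imipenem susceptibility (1 μg/ml imipenem) was judged by absorbance after 22–24 h at 35° C. Test compound was added to bacteria suspended 1:100 in 1.1× CAMHB from overnight blood-agar cultures.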

For data set [2], the system named is Klebsiella pneumoniae expressing VIM-1 (IHMA599644). It counts as cell-based. The conditions noted are these: with imipenem 1 μg/ml, 95% inhibition of bacterial growth; for Klebsiella pneumoniae MITC95: VIM-1 (IHMA599644). In outline:
as §2

Data set [3] deals with Serratia marcescens expressing IMP-1 (CL5741). It counts as cell-based. The conditions noted are these: with imipenem 1 μg/ml, 95% inhibition of bacterial growth; for Serratia marcescens MITC95: IMP-1 (CL5741). In short, it runs like this: as §2
In data set [4] the test system is P. aeruginosa expressing IMP-1, efflux+ (MB9798). It counts as cell-based, Pseudomonas aeruginosa. The conditions noted are these: for P. aeruginosa expressing IMP-1, efflux+ (MB9798) MITC95: imipenem at 2 μg/mL, in the presence of a class A, C, D serine β-lactamase inhibitor closely related to relebactam; for Efflux ratio: ratio MITC95 PA_9798/MITC95 PA_9799. The text has this:
(§3) The strain background is Pseudomonas aeruginosa PAO1.

Data set [5] has as its system P. aeruginosa expressing IMP-1, efflux− (MB9799). Nature of the data set: Efflux: concentration of MBL inhibitor which restores susceptibility to imipenem. The conditions noted are these: imipenem at 2 μg/mL, in the presence of a class A, C, D serine β-lactamase inhibitor closely related to relebactam. It counts as cell-based, Pseudomonas aeruginosa.
Source text: as §3

[6] abbreviates: CCF2-FA substrate, 2 hours at 25° C, read-out: IMP-1 IC50.

Where two headings read alike, the source gives them in different places.

NDM-1, sequence (C7C422 whole entry, looked up, species assumed): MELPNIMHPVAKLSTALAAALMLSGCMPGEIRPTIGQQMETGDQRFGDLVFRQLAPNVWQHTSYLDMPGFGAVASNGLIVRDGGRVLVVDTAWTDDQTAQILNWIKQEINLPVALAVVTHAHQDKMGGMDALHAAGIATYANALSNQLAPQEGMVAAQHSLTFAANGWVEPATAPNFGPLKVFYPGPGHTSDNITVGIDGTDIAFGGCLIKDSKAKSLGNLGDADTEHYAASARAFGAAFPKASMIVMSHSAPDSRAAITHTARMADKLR
IMP-1, sequence (P52699 whole entry, looked up, species assumed): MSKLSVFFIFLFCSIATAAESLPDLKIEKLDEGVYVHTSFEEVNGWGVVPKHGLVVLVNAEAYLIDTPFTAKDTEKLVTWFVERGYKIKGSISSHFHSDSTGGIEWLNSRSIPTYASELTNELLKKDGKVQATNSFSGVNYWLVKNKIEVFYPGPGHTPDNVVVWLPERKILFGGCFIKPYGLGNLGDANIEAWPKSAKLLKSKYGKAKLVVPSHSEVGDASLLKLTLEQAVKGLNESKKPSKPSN

Broadly, the IC50 is the point on the concentration scale where inhibition reaches its midpoint. On to `N[C@H](CO)CS(=O)(=O)c1ccc(-c2cccc3[nH]cnc23)c(-c2nn[nH]n2)c1S(N)(=O)=O` [Example 356, (R)-6-((2-amino-3-hydroxypropyl)sulfonyl)-3-(1H-benzo[d]imidazol-4-yl)-2-(2H-tetrazol-5-yl) benzenesulfonamide], for which the IC50 at IMP-1 (setting [6]) came out at 0.496 nM; on NDM-1 it was 0.27 nM; against VIM-1, 0.344 nM. In addition, the “Escherichia coli MITC95” value in data set [1] was 1.563 µM. In addition, the “Klebsiella pneumoniae MITC95” value in data set [2] was determined as 3.125 µM. Moreover, the “Serratia marcescens MITC95” value in data set [3] is 1.563 µM. The “P. aeruginosa expressing IMP-1, efflux+ (MB9798) MITC95” value in data set [4] was determined as 1.563 µM. Also, the Efflux ratio in data set [4] is on record as 1.00. Also, in data set [5], the “P. aeruginosa expressing IMP-1, efflux− (MB9799) MITC95” value was determined as 1.563 µM.

On to `CNC(=O)c1ccc(-c2ccc(S(=O)(=O)CCN)c(S(N)(=O)=O)c2-c2nnn[nH]2)cn1.O=C(O)C(F)(F)F` [Example 139, 2-((4-(6-(methylcarbamoyl)pyridin-3-yl)-2-sulfamoyl-3-(1H-tetrazol-5-yl)phenyl)sulfonyl)ethanaminium 2,2,2-trifluoroacetate], for which the 50% inhibitory concentration (IC50) was 3.32 nM on IMP-1 (setting [6]), 3.96 nM at NDM-1 and 2.04 nM at VIM-1. Moreover, the “Escherichia coli expressing NDM-1 (CLB30016) MITC95” value in data set [1] amounted to 1.563 µM. In data set [2], the “Klebsiella pneumoniae expressing VIM-1 (IHMA599644) MITC95” value turned out to be 6.25 µM. Besides, in data set [3], the “Serratia marcescens expressing IMP-1 (CL5741) MITC95” value is 3.125 µM. In addition, in data set [4], the “P. aeruginosa expressing IMP-1, efflux+ (MB9798) MITC95” value is 12.5 µM. The Efflux ratio in data set [4] amounted to 8.00. In addition, in data set [5], the “P. aeruginosa expressing IMP-1, efflux− (MB9799) MITC95” value is 1.563 µM.

Regarding `Cn1c(N)nc2c(-c3ccc(S(=O)(=O)CCN)c(S(N)(=O)=O)c3-c3nn[nH]n3)cccc21` [Example 79, 3-(2-amino-1-methyl-1H-benzo[d]imidazol-4-yl)-6-(2-aminoethylsulfonyl)-2-(2H-tetrazol-5-yl)benzenesulfonamide], the IC50 came to 0.241 nM on IMP-1, 0.354 nM on NDM-1 and 0.327 nM at VIM-1. Also, the “Escherichia coli expressing NDM-1 (CLB30016) MITC95” value in data set [1] was determined as 0.25 µM. Moreover, in data set [2], the “Klebsiella pneumoniae expressing VIM-1 (IHMA599644) MITC95” value worked out at 1.281 µM. For the same compound, the “Serratia marcescens expressing IMP-1 (CL5741) MITC95” value in data set [3] was determined as 0.8906 µM. The “P. aeruginosa expressing IMP-1, efflux+ (MB9798) MITC95” value in data set [4] stood at 0.8906 µM. Further, in data set [4], the Efflux ratio was 1.39. Further, the “P. aeruginosa expressing IMP-1, efflux− (MB9799) MITC95” value in data set [5] was 0.6406 µM.

Take `Cc1ccc(-c2ccc(S(=O)(=O)CCN)c(S(N)(=O)=O)c2-c2nn[nH]n2)c2nc(N)sc12` [Example 80, 3-(2-amino-7-methylbenzo[d]thiazol-4-yl)-6-(2-aminoethylsulfonyl)-2-(2H-tetrazol-5-yl)benzenesulfonamide]: the IC50 on IMP-1 (setting [6]) came out at 0.085 nM; on NDM-1 it was 0.0508 nM; on VIM-1 it was 0.11 nM. In addition, the “Escherichia coli expressing NDM-1 (CLB30016) MITC95” value in data set [1] is 1.172 µM. Besides, the “Klebsiella pneumoniae expressing VIM-1 (IHMA599644) MITC95” value in data set [2] was determined as 1.563 µM. Moreover, the “Serratia marcescens expressing IMP-1 (CL5741) MITC95” value in data set [3] was found to be 0.7813 µM. Besides, the “P. aeruginosa expressing IMP-1, efflux+ (MB9798) MITC95” value in data set [4] stood at 0.7813 µM. Also, the Efflux ratio in data set [4] stood at 1.00. The “P. aeruginosa expressing IMP-1, efflux− (MB9799) MITC95” value in data set [5] was 0.7813 µM.

For `NCCS(=O)(=O)c1ccc(-c2cccc(-n3cccn3)c2)c(-c2nnn[nH]2)c1S(N)(=O)=O.O=C(O)C(F)(F)F` [Example 156, 2-((3′-(1H-pyrazol-1-yl)-3-sulfamoyl-2-(1H-tetrazol-5-yl)-[1,1′-biphenyl]-4-yl)sulfonyl)ethanaminium 2,2,2-trifluoroacetate], the IC50 worked out at 0.981 nM on IMP-1 (setting [6]), 1.08 nM at NDM-1 and 0.743 nM against VIM-1. Further, the “Escherichia coli expressing NDM-1 (CLB30016) MITC95” value in data set [1] worked out at 0.7813 µM. For the same compound, the “Klebsiella pneumoniae expressing VIM-1 (IHMA599644) MITC95” value in data set [2] was 6.25 µM. The “Serratia marcescens expressing IMP-1 (CL5741) MITC95” value in data set [3] was 1.563 µM. The “P. aeruginosa expressing IMP-1, efflux+ (MB9798) MITC95” value in data set [4] was found to be 50 µM. For the same compound, in data set [4], the Efflux ratio stood at 31.99. Also, the “P. aeruginosa expressing IMP-1, efflux− (MB9799) MITC95” value in data set [5] came out at 1.563 µM.

For the compound `NCCS(=O)(=O)c1ccc(-c2cnc(N)c(C(=O)N[C@H]3CCNC3)c2)c(-c2nn[nH]n2)c1S(N)(=O)=O` [Example 336, (S)-2-Amino-5-(4-((2-aminoethyl)sulfonyl)-3-sulfamoyl-2-(2H-tetrazol-5-yl)phenyl)-N-(pyrrolidin-3-yl)nicotinamide], the IC50 at IMP-1 (setting [6]) came out at 9.51 nM; at NDM-1, 6.3 nM; on VIM-1 it was 3.57 nM. For the same compound, in data set [1], the “Escherichia coli MITC95” value worked out at 0.7813 µM. The “Klebsiella pneumoniae MITC95” value in data set [2] worked out at 3.125 µM. For the same compound, the “Serratia marcescens MITC95” value in data set [3] is 1.563 µM. In addition, the “P. aeruginosa expressing IMP-1, efflux+ (MB9798) MITC95” value in data set [4] was 12.5 µM. The Efflux ratio in data set [4] is recorded as 8.00. Moreover, the “P. aeruginosa expressing IMP-1, efflux− (MB9799) MITC95” value in data set [5] stood at 1.563 µM.

`NS(=O)(=O)c1c(SC2CNC2)ccc(-c2ccc(NS(=O)(=O)C3CC3)cc2)c1-c1nn[nH]n1` [Example 243, 4-(Azetidin-3-ylthio)-4′-(cyclopropanesulfonamido)-2-(2H-tetrazol-5-yl)-[1,1′-biphenyl]-3-sulfonamide]: the IC50 was found to be 11.3 nM on IMP-1 (setting [6]), 5.88 nM at NDM-1 and 9.86 nM against VIM-1. In addition, the “Escherichia coli expressing NDM-1 (CLB30016) MITC95” value in data set [1] is 3.125 µM. In addition, the “Klebsiella pneumoniae expressing VIM-1 (IHMA599644) MITC95” value in data set [2] stood at 12.5 µM. The “Serratia marcescens expressing IMP-1 (CL5741) MITC95” value in data set [3] amounted to 3.125 µM. In data set [4], the “P. aeruginosa expressing IMP-1, efflux+ (MB9798) MITC95” value worked out at 100 µM. The Efflux ratio in data set [4] was 127.99. Also, the “P. aeruginosa expressing IMP-1, efflux− (MB9799) MITC95” value in data set [5] stood at 0.7813 µM.

For `Nc1nc2cccc(-c3ccc(S(=O)(=O)[C@@H]4CCNC4)c(S(N)(=O)=O)c3-c3nn[nH]n3)c2[nH]1` [Example 181, 3-(2-amino-3H-benzo[d]imidazol-4-yl)-6-((R)-pyrrolidin-3-ylsulfonyl)-2-(2H-tetrazol-5-yl)benzenesulfonamide], the IC50 on IMP-1 (setting [6]) was 0.807 nM; at NDM-1, 0.149 nM; on VIM-1, 0.42 nM. The “Escherichia coli expressing NDM-1 (CLB30016) MITC95” value in data set [1] stood at 0.3203 µM. For the same compound, in data set [2], the “Klebsiella pneumoniae expressing VIM-1 (IHMA599644) MITC95” value came out at 0.8542 µM. In addition, the “Serratia marcescens expressing IMP-1 (CL5741) MITC95” value in data set [3] is 0.6875 µM. Further, the “P. aeruginosa expressing IMP-1, efflux+ (MB9798) MITC95” value in data set [4] was found to be 0.6875 µM. The Efflux ratio in data set [4] is 1.00. In addition, the “P. aeruginosa expressing IMP-1, efflux− (MB9799) MITC95” value in data set [5] stood at 0.6875 µM.

Consider `Cn1ncc2cccc(-c3ccc(S(=O)(=O)C4CNC4)c(S(N)(=O)=O)c3-c3nnn[nH]3)c21.O=C(O)C(F)(F)F` [Example 130, 3-((4-(1-methyl-1H-indazol-7-yl)-2-sulfamoyl-3-(1H-tetrazol-5-yl)phenyl)sulfonyl)azetidin-1-ium 2,2,2-trifluoroacetate], for which the IC50 came to 1.69 nM at IMP-1 (setting [6]), 0.23 nM at NDM-1 and 0.248 nM at VIM-1. In addition, the “Escherichia coli expressing NDM-1 (CLB30016) MITC95” value in data set [1] was 1.563 µM. In addition, the “Klebsiella pneumoniae expressing VIM-1 (IHMA599644) MITC95” value in data set [2] was found to be 6.25 µM. Also, the “Serratia marcescens expressing IMP-1 (CL5741) MITC95” value in data set [3] is 6.25 µM. Further, the “P. aeruginosa expressing IMP-1, efflux+ (MB9798) MITC95” value in data set [4] came out at 12.5 µM. Further, the Efflux ratio in data set [4] is 4.00. Moreover, in data set [5], the “P. aeruginosa expressing IMP-1, efflux− (MB9799) MITC95” value amounted to 3.125 µM.
